Several values for one entry are separate records, joined by “and”; a condition that tells them apart may be missing. Identical values can stand only once.
Test: NHP health screening: hematology (CBC)
Assay type: in vivo, rhesus macaques (Macaca mulatta)
[1] = treated female macaques, post-dosing bleed, Mean
[2] = treated macaques, end of study bleed, individual animals
[3] = treated macaques, mid-dosing bleed, individual animals

Method: Under light-anesthesia/sedation, peripheral blood samples were collected from each animal prior to treatment and at 7 time points following. Blood analysis (CBC and serum chemistry assays) and physical exams to evaluate the health of the study animals were performed on each animal prior to the beginning of the study and also at three time points during the treatment protocol (see Supplementary data).

Cc1c(C(=O)N[C@H](C(=O)OCC2CCOCC2)C(C)C)ccc2c1B(O)OC2 [AN15368]
Mch [1]: 23.6944 Pgs
Mchc [1]: 32.2333 G/Dl
Mcv [1]: 73.5333 fL
Mono [1]: 0.2561 10^3/µL
Mpv [1]: 7.553 fL
Neut [1]: 2.507 10^3/µL
Plt [1]: 330.353 10^3/µL
Rbc [1]: 5.521 10^6/µL
Rdw [1]: 12.4778%
Wbc [1]: 5.361 10^3/µL
Baso [2]: 0.01 10^3/µL and 0.02 10^3/µL and 0 10^3/µL
Eos [2]: 0.07 10^3/µL and 0.12 10^3/µL and 0.02 10^3/µL and 0.06 10^3/µL and 0.17 10^3/µL and 0.01 10^3/µL and 0.05 10^3/µL and 0.21 10^3/µL and 0.16 10^3/µL and 0.03 10^3/µL
Hct [2]: 39.5% and 45.3% and 41.2% and 45.7% and 43.1% and 42.5% and 44.2% and 44% and 41.8% and 40.4% and 42.9% and 44.8% and 39.8%
Hgb [2]: 11.9 G/Dl and 14.7 G/Dl and 12.8 G/Dl and 14.6 G/Dl and 13.3 G/Dl and 13.2 G/Dl and 13.6 G/Dl and 13.7 G/Dl and 13.1 G/Dl and 13 G/Dl and 12.9 G/Dl and 13.4 G/Dl and 12.3 G/Dl
Lymp [2]: 1.75 10^3/µL and 3.93 10^3/µL and 1.62 10^3/µL and 3.5 10^3/µL and 2.42 10^3/µL and 0.76 10^3/µL and 1.4 10^3/µL and 2.46 10^3/µL and 2.32 10^3/µL and 1.59 10^3/µL and 0.91 10^3/µL and 2.37 10^3/µL and 1.53 10^3/µL and 1.63 10^3/µL
Mch [2]: 21.9 Pgs and 22.2 Pgs and 23.6 Pgs and 24.2 Pgs and 22.7 Pgs and 21.7 Pgs and 21.5 Pgs and 23.8 Pgs and 22.4 Pgs and 22.3 Pgs and 22.5 Pgs and 22.9 Pgs
Mchc [2]: 30.1 G/Dl and 32.5 G/Dl and 31.1 G/Dl and 31.9 G/Dl and 30.9 G/Dl and 30.8 G/Dl and 29.6 G/Dl and 31.6 G/Dl and 32.2 G/Dl and 29.9 G/Dl
Mcv [2]: 72.3 fL and 68.2 fL and 75.6 fL and 75.7 fL and 73.4 fL and 69.9 fL and 73.5 fL and 73.1 fL and 75.2 fL and 69.2 fL and 74.1 fL and 75.4 fL and 74.4 fL
Mono [2]: 0.25 10^3/µL and 0.23 10^3/µL and 0.17 10^3/µL and 0.37 10^3/µL and 0.36 10^3/µL and 0.48 10^3/µL and 0.3 10^3/µL and 0.21 10^3/µL and 0.2 10^3/µL and 0.44 10^3/µL and 0.26 10^3/µL and 0.29 10^3/µL and 0.12 10^3/µL
Mpv [2]: 6.3 fL and 7.4 fL and 8.1 fL and 9.7 fL and 8.4 fL and 7 fL and 6.5 fL and 7.9 fL and 7.2 fL and 6.9 fL and 7.3 fL and 6.4 fL
Neut [2]: 1.44 10^3/µL and 1.12 10^3/µL and 1.09 10^3/µL and 1.69 10^3/µL and 4.26 10^3/µL and 8.57 10^3/µL and 5.95 10^3/µL and 2.2 10^3/µL and 1.94 10^3/µL and 1.95 10^3/µL and 8.94 10^3/µL and 3.94 10^3/µL and 6.95 10^3/µL and 1.75 10^3/µL
Plt [2]: 418 10^3/µL and 361 10^3/µL and 262 10^3/µL and 246 10^3/µL and 276 10^3/µL and 221 10^3/µL and 490 10^3/µL and 360 10^3/µL and 283 10^3/µL and 257 10^3/µL and 336 10^3/µL and 367 10^3/µL and 446 10^3/µL and 324 10^3/µL
Rbc [2]: 5.46 10^6/µL and 6.64 10^6/µL and 5.45 10^6/µL and 6.04 10^6/µL and 5.87 10^6/µL and 6.08 10^6/µL and 6.01 10^6/µL and 6.02 10^6/µL and 6.11 10^6/µL and 5.56 10^6/µL and 5.84 10^6/µL and 5.79 10^6/µL and 5.94 10^6/µL and 5.35 10^6/µL
Rdw [2]: 13.4% and 11.4% and 12.4% and 11.5% and 12.2% and 12.3% and 12.8% and 11.8%
Wbc [2]: 3.51 10^3/µL and 5.42 10^3/µL and 2.91 10^3/µL and 5.63 10^3/µL and 7.21 10^3/µL and 9.83 10^3/µL and 7.73 10^3/µL and 5.19 10^3/µL and 4.54 10^3/µL and 3.78 10^3/µL and 10.31 10^3/µL and 6.74 10^3/µL and 8.9 10^3/µL and 3.54 10^3/µL
Baso [3]: 0.01 10^3/µL and 0.02 10^3/µL and 0 10^3/µL
Eos [3]: 0.07 10^3/µL and 0.09 10^3/µL and 0.04 10^3/µL and 0.06 10^3/µL and 0.16 10^3/µL and 0.08 10^3/µL and 0.05 10^3/µL and 0.18 10^3/µL and 0.19 10^3/µL and 0.2 10^3/µL and 0.02 10^3/µL and 0.26 10^3/µL

Source: publication PMC9519446, “Discovery of an Orally Active Benzoxaborole Prodrug Effective in the Treatment of Chagas Disease in Non-human Primates” (Nature microbiology, 2022)
